Assay results published in patent US11401234B2, “Deuterated compounds and uses thereof” (priority 2012, dated 2022).
Where “and” joins values, the source holds several entries; their conditions need not be identical. Equal values may be shown once.

Legend:
[1] = test system: Human T cell leukaemia cells (Jurkat); assay: Inhibition of cell proliferation in air or 1% oxygen (Coulter Counter relative cell number); assay type: cell-based; conditions: 4 days, range of concentrations
22Rv1 prostate tumours = assay: Tumour oxygenation (pO2) by Oxylite oxygen electrode probe in xenografts; assay type: in vivo, SCID mice
Description: • 22Rv1 cells grow as a solid tumour on the backs of SCID mice. • Tumour oxygenation was measured over 28 days in vehicle and bicalutamide (2 mg/kg/day) treated mice (see Table 3 above). • Bicalutamide caused a drop in tumour oxygenation (as shown in FIG. 10); from ˜15.3 mmHg (2% oxygen) to 2.0 mmHg (0.3% oxygen) at day 7 and to 0.5 mmHg (0.1% oxygen) at day 14. […] However, during the subsequent week (probably related to tumour size) the median oxygen levels […] to about 3 mmHg (0.4% oxygen) and do indicate recovery.

22Rv1 xenograft tumours = assay: 22Rv1 xenograft tumour growth (calliper tumour volumes); assay type: in vivo, SCID mice; conditions: 2 mg/kg/day oral gavage
From the text: (ii) Effect of Bicalutamide on Blood Vessels in 22Rv1 Tumour Xenografts • Dorsal skin folds were secured using window chambers onto the backs of male SCID mice (>8 weeks). […] Tumour volume was normalised to day 6 (ie pre-prodrug addition).

LNCaP xenograft tumours = assay: LNCaP xenograft tumour growth (calliper tumour volumes); assay type: in vivo, SCID mice

## [2H]C([2H])([2H])N(CCNc1ccc(NCCN(C([2H])([2H])[2H])C([2H])([2H])[2H])c2c1C(=O)c1c(O)ccc(O)c1C2=O)C([2H])([2H])[2H] [OCT1001, 1,4-bis-{[2-(deuterated-d6-dimethylamino)ethyl]amino)-5,8-dihydroxy-anthracene-9,10-dione]
A549 cells; after 24 h post exposure recovery in drug free medium, normal oxygenation
  loss of intracellular fluorescence attributable to metabolite, compared with AQ4: reduced loss
A549 cells; after 4 day prodrug exposure under 1% oxygen
  cellular accumulation of intracellular fluorescence attributable to metabolite, compared with AQ4: reduced cellular accumulation

## COc1cc([C@@H]2c3cc4c(cc3[C@@H](O[C@@H]3O[C@@H]5CO[C@@H](C)O[C@H]5[C@H](O)[C@H]3O)[C@H]3COC(=O)[C@H]23)OCO4)cc(OC)c1O [VP-16]
[1]
  inhibition of cell proliferation (cytostatic activity, relative cell number): hypoxia does not modify the cytostatic action

## CC(O)(CS(=O)(=O)c1ccc(F)cc1)C(=O)Nc1ccc(C#N)c(C(F)(F)F)c1 (stereo not drawn) [Bicalutamide]
22Rv1 prostate tumours; day 0 (before commencement of treatment), 2 mg/kg/day oral gavage group, 2 mg/kg/day
  Mean pO2 ± SD: 15.277 ± 11.254 mmHg
22Rv1 prostate tumours; day 0, 2 mg/kg/day group
  tumour oxygenation: 2 % oxygen
22Rv1 prostate tumours; day 7, 2 mg/kg/day
  tumour oxygenation: 0.3 % oxygen
22Rv1 prostate tumours; day 7 of treatment, 2 mg/kg/day oral gavage, 2 mg/kg/day
  Mean pO2 ± SD: 2.0 mmHg and 1.996 ± 1.989 mmHg
22Rv1 prostate tumours; day 14, 2 mg/kg/day
  tumour oxygenation: 0.1 % oxygen
22Rv1 prostate tumours; day 14 of treatment, 2 mg/kg/day oral gavage, 2 mg/kg/day
  Mean pO2 ± SD: 0.5 mmHg and 0.486 ± 0.107 mmHg
22Rv1 prostate tumours; day 21 of treatment, 2 mg/kg/day oral gavage
  Mean pO2 ± SD: 1.291 ± 0.291 mmHg
22Rv1 prostate tumours; day 28 of treatment, 2 mg/kg/day oral gavage
  Mean pO2 ± SD: 11.905 ± 0.861 mmHg
22Rv1 xenograft tumours
  time to reach four times the volume at the start of treatment: 18.5 ± 0.8 days
22Rv1 xenograft tumours; versus vehicle, time to four times start volume
  Growth Delay: 4.5 days
LNCaP xenograft tumours; bicalutamide 2 mg/kg/day oral 28 days, OCT1002 50 mg/kg i.p. single dose day 7
  Time to 2x start volume: 16.2 ± 1.94 days
LNCaP xenograft tumours; versus vehicle, time to reach twice the treatment size
  Growth Delay: 5.1 days and 5 ± 3.82 days
